In the NIST ThermoML archive (doi:10.1021/acs.jced.6b00496):
± gives the expanded uncertainty stated by the source.

Assay: xn = mol fraction of the nth substance listed
Settings: 81.5 kPa, Liquid; for speed of sound: Sing-around technique in a fixed-path interferometer; for mass density: Vibrating tube method

CCn1cc[n+](C)c1.F[B-](F)(F)F [1-ethyl-3-methylimidazolium tetrafluoroborate] + CN(C)C=O
Settings | mass density [kg/m3] | speed of sound [m/s]
293.15 K, x1 = 0.0997 | 1019.18 ± 4.1 | 1524.5 ± 3.1
293.15 K, x1 = 0.2042 | 1075.44 ± 4.3 | 1552.3 ± 3.1
293.15 K, x1 = 0.2983 | 1116.82 ± 4.5 | 1571.7 ± 3.2
293.15 K, x1 = 0.4111 | 1157.47 ± 4.6 | 1589.3 ± 3.2
293.15 K, x1 = 0.5003 | 1184.76 ± 4.8 | 1600.9 ± 3.3
293.15 K, x1 = 0.585 | 1206.75 ± 4.9 | 1609.6 ± 3.3
293.15 K, x1 = 0.6965 | 1231.36 ± 5 | 1618.8 ± 3.4
293.15 K, x1 = 0.7833 | 1247.19 ± 5.1 | 1625.5 ± 3.5
293.15 K, x1 = 0.9134 | 1267.67 ± 5.2 | 1633.1 ± 3.6
293.15 K, x1 = 1 | 1285.95 ± 5.3 | 1640.4 ± 3.7
298.15 K, x1 = 0.0997 | 1014.69 ± 4.1 | 1506.5 ± 3.1
298.15 K, x1 = 0.2042 | 1071.12 ± 4.3 | 1535.6 ± 3.1
298.15 K, x1 = 0.2983 | 1112.62 ± 4.5 | 1555.9 ± 3.2
298.15 K, x1 = 0.4111 | 1153.38 ± 4.6 | 1574.6 ± 3.2
298.15 K, x1 = 0.5003 | 1180.74 ± 4.7 | 1586.9 ± 3.3
298.15 K, x1 = 0.585 | 1202.77 ± 4.8 | 1596.1 ± 3.3
298.15 K, x1 = 0.6965 | 1227.44 ± 5 | 1605.9 ± 3.4
298.15 K, x1 = 0.7833 | 1243.3 ± 5 | 1612.9 ± 3.5
298.15 K, x1 = 0.9134 | 1263.82 ± 5.2 | 1620.9 ± 3.6
298.15 K, x1 = 1 | 1282.14 ± 5.3 | 1628.4 ± 3.7
303.15 K, x1 = 0.0997 | 1010.19 ± 4 | 1488.6 ± 3.1
303.15 K, x1 = 0.2042 | 1066.81 ± 4.3 | 1519 ± 3.1
303.15 K, x1 = 0.2983 | 1108.42 ± 4.4 | 1540.4 ± 3.2
303.15 K, x1 = 0.4111 | 1149.29 ± 4.6 | 1560.1 ± 3.2
303.15 K, x1 = 0.5003 | 1176.72 ± 4.7 | 1573 ± 3.3
303.15 K, x1 = 0.585 | 1198.81 ± 4.8 | 1582.7 ± 3.3
303.15 K, x1 = 0.6965 | 1223.53 ± 4.9 | 1593 ± 3.4
303.15 K, x1 = 0.7833 | 1239.43 ± 5 | 1600.5 ± 3.5
303.15 K, x1 = 0.9134 | 1259.99 ± 5.2 | 1608.8 ± 3.6
303.15 K, x1 = 1 | 1278.34 ± 5.3 | 1616 ± 3.7
308.15 K, x1 = 0.0997 | 1005.7 ± 4 | 1470.8 ± 3.1
308.15 K, x1 = 0.2042 | 1062.49 ± 4.3 | 1502.6 ± 3.1
308.15 K, x1 = 0.2983 | 1104.23 ± 4.4 | 1524.9 ± 3.2
308.15 K, x1 = 0.4111 | 1145.23 ± 4.6 | 1545.6 ± 3.2
308.15 K, x1 = 0.5003 | 1172.72 ± 4.7 | 1559.2 ± 3.3
308.15 K, x1 = 0.585 | 1194.86 ± 4.8 | 1569.4 ± 3.3
308.15 K, x1 = 0.6965 | 1219.63 ± 4.9 | 1580.3 ± 3.4
308.15 K, x1 = 0.7833 | 1235.57 ± 5 | 1588.2 ± 3.5
308.15 K, x1 = 0.9134 | 1256.17 ± 5.1 | 1596.9 ± 3.6
308.15 K, x1 = 1 | 1274.55 ± 5.3 | 1604.9 ± 3.7
313.15 K, x1 = 0.0997 | 1001.2 ± 4 | 1453.1 ± 3.1
313.15 K, x1 = 0.2042 | 1058.19 ± 4.2 | 1486.2 ± 3.1
313.15 K, x1 = 0.2983 | 1100.05 ± 4.4 | 1509.6 ± 3.2
313.15 K, x1 = 0.4111 | 1141.17 ± 4.6 | 1531.3 ± 3.2
313.15 K, x1 = 0.5003 | 1168.73 ± 4.7 | 1545.6 ± 3.3
313.15 K, x1 = 0.585 | 1190.92 ± 4.8 | 1556.3 ± 3.3
313.15 K, x1 = 0.6965 | 1215.75 ± 4.9 | 1567.7 ± 3.4
313.15 K, x1 = 0.7833 | 1231.73 ± 5 | 1576 ± 3.5
313.15 K, x1 = 0.9134 | 1252.37 ± 5.1 | 1585 ± 3.6
313.15 K, x1 = 1 | 1270.78 ± 5.2 | 1593.4 ± 3.7
318.15 K, x1 = 0.0997 | 996.709 ± 4 | 1435.6 ± 3.1
318.15 K, x1 = 0.2042 | 1053.89 ± 4.2 | 1470 ± 3.1
318.15 K, x1 = 0.2983 | 1095.88 ± 4.4 | 1494.4 ± 3.2
318.15 K, x1 = 0.4111 | 1137.12 ± 4.6 | 1517.1 ± 3.2
318.15 K, x1 = 0.5003 | 1164.76 ± 4.7 | 1532 ± 3.3
318.15 K, x1 = 0.585 | 1187 ± 4.8 | 1543.3 ± 3.3
318.15 K, x1 = 0.6965 | 1211.89 ± 4.9 | 1555.3 ± 3.4
318.15 K, x1 = 0.7833 | 1227.91 ± 5 | 1563.9 ± 3.5
318.15 K, x1 = 0.9134 | 1248.58 ± 5.1 | 1573.3 ± 3.6
318.15 K, x1 = 1 | 1267.03 ± 5.2 | 1582 ± 3.7
323.15 K, x1 = 0.0997 | 992.209 ± 4 | 1418.1 ± 3.1
323.15 K, x1 = 0.2042 | 1049.59 ± 4.2 | 1453.8 ± 3.1
323.15 K, x1 = 0.2983 | 1091.72 ± 4.4 | 1479.3 ± 3.2
323.15 K, x1 = 0.4111 | 1133.08 ± 4.5 | 1503 ± 3.2
323.15 K, x1 = 0.5003 | 1160.79 ± 4.7 | 1518.6 ± 3.3
323.15 K, x1 = 0.585 | 1183.1 ± 4.8 | 1530.4 ± 3.3
323.15 K, x1 = 0.6965 | 1208.05 ± 4.9 | 1542.9 ± 3.4
323.15 K, x1 = 0.7833 | 1224.11 ± 5 | 1551.9 ± 3.5
323.15 K, x1 = 0.9134 | 1244.82 ± 5.1 | 1561.7 ± 3.6
323.15 K, x1 = 1 | 1263.3 ± 5.2 | 1570.6 ± 3.7
328.15 K, x1 = 0.0997 | 987.708 ± 4 | 1400.7 ± 3.1
328.15 K, x1 = 0.2042 | 1045.31 ± 4.2 | 1437.8 ± 3.1
328.15 K, x1 = 0.2983 | 1087.57 ± 4.4 | 1464.2 ± 3.2
328.15 K, x1 = 0.4111 | 1129.05 ± 4.5 | 1489 ± 3.2
328.15 K, x1 = 0.5003 | 1156.85 ± 4.6 | 1505.2 ± 3.3
328.15 K, x1 = 0.585 | 1179.21 ± 4.7 | 1517.6 ± 3.3
328.15 K, x1 = 0.6965 | 1204.22 ± 4.9 | 1530.6 ± 3.4
328.15 K, x1 = 0.7833 | 1220.32 ± 4.9 | 1540 ± 3.5
328.15 K, x1 = 0.9134 | 1241.07 ± 5.1 | 1550.1 ± 3.6
328.15 K, x1 = 1 | 1259.58 ± 5.2 | 1559.4 ± 3.7
333.15 K, x1 = 0.0997 | 983.204 ± 3.9 | 1383.3 ± 3.1
333.15 K, x1 = 0.2042 | 1041.01 ± 4.2 | 1421.8 ± 3.1
333.15 K, x1 = 0.2983 | 1083.42 ± 4.3 | 1449.3 ± 3.2
333.15 K, x1 = 0.4111 | 1125.03 ± 4.5 | 1475 ± 3.2
333.15 K, x1 = 0.5003 | 1152.91 ± 4.6 | 1492 ± 3.3
333.15 K, x1 = 0.585 | 1175.33 ± 4.7 | 1504.8 ± 3.3
333.15 K, x1 = 0.6965 | 1200.41 ± 4.8 | 1518.4 ± 3.4
333.15 K, x1 = 0.7833 | 1216.55 ± 4.9 | 1528.2 ± 3.5
333.15 K, x1 = 0.9134 | 1237.34 ± 5.1 | 1538.7 ± 3.6
333.15 K, x1 = 1 | 1255.88 ± 5.2 | 1548.2 ± 3.7
338.15 K, x1 = 0.0997 | 978.699 ± 3.9 | 1366.1 ± 3.1
338.15 K, x1 = 0.2042 | 1036.73 ± 4.1 | 1405.9 ± 3.1
338.15 K, x1 = 0.2983 | 1079.28 ± 4.3 | 1434.5 ± 3.2
338.15 K, x1 = 0.4111 | 1121.03 ± 4.5 | 1461.2 ± 3.2
338.15 K, x1 = 0.5003 | 1148.99 ± 4.6 | 1478.9 ± 3.3
338.15 K, x1 = 0.585 | 1171.47 ± 4.7 | 1492.2 ± 3.3
338.15 K, x1 = 0.6965 | 1196.61 ± 4.8 | 1506.4 ± 3.4
338.15 K, x1 = 0.7833 | 1212.8 ± 4.9 | 1516.5 ± 3.5
338.15 K, x1 = 0.9134 | 1233.63 ± 5 | 1527.4 ± 3.6
338.15 K, x1 = 1 | 1252.2 ± 5.2 | 1537.2 ± 3.7
343.15 K, x1 = 0.0997 | 974.184 ± 3.9 | 1348.9 ± 3.1
343.15 K, x1 = 0.2042 | 1032.45 ± 4.1 | 1390.2 ± 3.1
343.15 K, x1 = 0.2983 | 1075.15 ± 4.3 | 1419.8 ± 3.2
343.15 K, x1 = 0.4111 | 1117.03 ± 4.5 | 1447.5 ± 3.2
343.15 K, x1 = 0.5003 | 1145.07 ± 4.6 | 1465.8 ± 3.3
343.15 K, x1 = 0.585 | 1167.62 ± 4.7 | 1479.7 ± 3.3
343.15 K, x1 = 0.6965 | 1192.82 ± 4.8 | 1494.4 ± 3.4
343.15 K, x1 = 0.7833 | 1209.06 ± 4.9 | 1504.9 ± 3.5
343.15 K, x1 = 0.9134 | 1229.93 ± 5 | 1516.1 ± 3.6
343.15 K, x1 = 1 | 1248.54 ± 5.2 | 1526.2 ± 3.7
